Results taken from patent publication US20230039711A1, “AHR INHIBITORS AND USES THEREOF” (Ikena Oncology, Inc., priority 2020, published 2023).

How the values were obtained:
[1] = Nonclinical safety, single-dose and repeated-dose toxicological studies in rodent and non-rodent species; assay type: in vivo; details: species not specified for these findings
[2] = Nonclinical safety studies incl. 28-day GLP study in monkeys; assay type: in vivo, monkey
[3] = Monotherapy dosing in human patients, safety; assay type: in vivo; details: 200 mg, 400 mg, 800 mg, and 1200 mg once daily (QD)
[4] = test system: other receptors, transporters, and kinases; assay: Selectivity for AHR over other receptors, transporters, and kinases
[5] = target: T1, AHR (Homo sapiens, UniProt P35869); assay: AHR translocation from cytoplasm to nucleus in the presence of a ligand, and downstream signaling in in vivo tumor models
T1 construct: host or cells: in vivo tumor models (not specified)
T1 sequence (P35869 11-848): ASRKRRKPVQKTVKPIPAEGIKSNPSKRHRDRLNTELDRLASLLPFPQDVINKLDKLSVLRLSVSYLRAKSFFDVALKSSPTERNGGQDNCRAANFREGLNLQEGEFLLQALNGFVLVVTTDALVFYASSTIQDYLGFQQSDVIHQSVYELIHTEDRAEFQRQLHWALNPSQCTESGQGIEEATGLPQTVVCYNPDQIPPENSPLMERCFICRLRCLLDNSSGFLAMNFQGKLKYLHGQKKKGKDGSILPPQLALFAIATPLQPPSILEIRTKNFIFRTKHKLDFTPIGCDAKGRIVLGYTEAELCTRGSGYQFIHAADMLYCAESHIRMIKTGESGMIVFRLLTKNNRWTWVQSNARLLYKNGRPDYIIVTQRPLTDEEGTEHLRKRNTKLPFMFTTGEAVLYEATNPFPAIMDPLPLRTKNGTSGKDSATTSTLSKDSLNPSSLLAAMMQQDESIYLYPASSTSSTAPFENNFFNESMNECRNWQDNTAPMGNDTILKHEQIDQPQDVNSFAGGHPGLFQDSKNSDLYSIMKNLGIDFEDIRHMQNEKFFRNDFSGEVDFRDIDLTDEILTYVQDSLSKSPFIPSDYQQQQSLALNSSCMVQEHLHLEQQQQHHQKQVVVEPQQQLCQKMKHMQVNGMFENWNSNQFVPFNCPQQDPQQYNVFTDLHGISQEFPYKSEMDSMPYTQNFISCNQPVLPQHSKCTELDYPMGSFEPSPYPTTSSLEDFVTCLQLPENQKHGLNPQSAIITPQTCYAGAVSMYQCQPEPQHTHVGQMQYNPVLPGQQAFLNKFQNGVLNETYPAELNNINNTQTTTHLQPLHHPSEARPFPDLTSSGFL

[6] = Nonclinical safety studies incl. 28-day GLP study in rat; assay type: in vivo; details: rats
[7] = test system: human T cell; assay: Human T cell assays; assay type: cell-based

Compound: CC(C)c1cnn2c(N[C@@H]3CCc4[nH]c5ccccc5c4C3)nc(-c3cncc(F)c3)nc12 [Compound A, (R)-N-(2-(5-fluoropyridin-3-yl)-8-isopropylpyrazolo[1,5-a][1,3,5]triazin-4-yl)-2,3,4,9-tetrahydro-1H-carbazol-3-amine]
- noteworthy findings of potential relevance to humans (general) [1]: emesis, loose stool, dehydration, body weight loss
- thymus weights and cortical lymphocytes ([2]; monkey): decreased
- QTc prolongation ([2]; monkeys): up to 11%
- serious adverse events (SAEs) [3]: no serious adverse events
- selectivity for AHR over other receptors, transporters, and kinases [4]: highly selective for AHR
- AHR translocating from the cytoplasm to the nucleus and downstream signaling [5]: effectively blocks
- stomach findings [6]: nonglandular stomach ulceration and edema
- testicular findings ([6]; not resolved after 2 weeks of dosing cessation): seminiferous tubule degeneration and debris in the epididymis lumen
- CYP1A1 gene expression [7]: inhibits
- T cell state [7]: induces an activated T cell state
- interleukin (IL)-22 gene expression [7]: inhibits
- pro-inflammatory cytokine IL-2 [7]: increase
- pro-inflammatory cytokine IL-9 [7]: increase
